Calls of active or inactive are those of the source.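 Rule for the calls: active = AC50 no more than ten times the top concentration tested, that is within one log above it; inconclusive = flat curve fit with activity between 30% and 70%, or invalid poor fit; inactive = AC50 beyond ten times the top tested dose.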
System: S. cerevisiae Mot1-301 ts growth rescue, BacTiter-Glo ATP luminescence
Test: restored Mot1-301 yeast growth at 38.5C – whole organism, S. cerevisiae, Mot1-301 ts mutant, luminescence, dose retest, SUMOylation pathway inhibitor project, confirmation (AID 463204);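 note: growth at restrictive 38.5 degrees C of Mot1-301 OY566 strain; actives raise luminescence by restoring growth of the ts mutant at high temperature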

| SMILES | AC50 |
| --- | --- |
| CC(C)NC(=O)COc1ccc(S(=O)(=O)N(C)Cc2ccccc2)cc1 | > 42 µM (inactive) |
| COc1ccccc1C1NC(=O)CS1 (configuration not stated) | > 42 µM (inactive) |
| COCc1[nH][nH]c(=O)c1C=Nc1ccc(OC(F)(F)F)cc1 | > 42 µM (inactive) |
| COc1cccc(C(=O)N2CCN(S(=O)(=O)Cc3ccccc3)CC2)c1OC | > 42 µM (inactive) |
| COc1cc2c(cc1OC)C(c1ccccc1C)CC(=O)N2 (configuration not stated) | > 42 µM (inactive) |
| CC1CN(Cc2ccccc2)c2nc3c(c(=O)[nH]c(=O)n3C)n2C1 (configuration not stated) | > 42 µM (inactive) |
| Cc1ccc(C(=O)N/C(=C\c2cccs2)C(=O)NCc2ccncc2)cc1 | > 42 µM (inactive) |
| CN1C(=O)c2cccc3c(Cl)ccc(c23)C1=O | > 42 µM (inactive) |
| CCOc1ccc(S(=O)(=O)N2CCN(CC(O)COc3cccc([N+](=O)[O-])c3)CC2)cc1 (configuration not stated) | > 42 µM (inactive) |
| CC(=O)c1ccc(NC(=O)CSc2nnc(-c3ccco3)o2)cc1 | > 42 µM (inactive) |
| CCCCn1c(/C=N/Nc2nc3ccccc3[nH]2)nc2ccccc21 | 3.98 µM |
| Cc1ccc(NC(=O)Cn2nnc(C(=O)NCc3ccc4c(c3)OCO4)c2N)cc1 | > 42 µM (inactive) |
| CCN(CC)c1ccc2c(C)c(CN3CCOCC3)c(=O)oc2c1 | > 42 µM (inactive) |
| CC1(C)CC(=O)C(C=Nc2ccc(O)c(N=CC3=C(O)CC(C)(C)CC3=O)c2)=C(O)C1 | > 42 µM (inactive) |
| CC(C)C(=O)Nc1cccc(-c2nc3ncccc3o2)c1 | > 42 µM (inactive) |
| Cc1ccc(C)n1-n1cnc2sc3c(c2c1=O)CCCCC3 | > 42 µM (inactive) |
| O=C(COc1ccccc1)NCCS(=O)(=O)N1CCN(c2ccccc2)CC1 | > 42 µM (inactive) |
| COc1ccc(CN2C(=O)c3c(c(C)n(C)c3C)C2C(=O)NC2CCC(C)CC2)cc1 (configuration not stated) | > 21 µM (inactive) |
| Cc1cc(C)cc(NC(=O)CS(=O)(=O)c2ccccc2)c1 | > 42 µM (inactive) |
| Cc1ccccc1NC1=NCCCS1 | > 42 µM (inactive) |
| Nc1ccc(NC(=O)c2ccco2)c(Cl)c1 | > 42 µM (inactive) |
| N#C/C(=C\c1ccc(O)c(O)c1)C(=O)Nc1ccccc1 | > 42 µM (inactive) |
| CCn1c(SCC(=O)Nc2ccc(OCc3ccccc3)cc2)nnc1-c1ccco1 | > 42 µM (inactive) |
| CCOc1ccc(Cl)cc1S(=O)(=O)N1CCC(C(=O)NCc2cccnc2)CC1 | > 42 µM (inactive) |

| SMILES | AC50 |
| --- | --- |
| O=C(COc1ccccc1)Nc1cccc(-c2nnc(-c3ccccc3)o2)c1 | > 42 µM (inactive) |
| NC(=O)NC(=O)CSc1nc(C2CCCCC2)n(-c2ccccc2)n1 | > 42 µM (inactive) |
| CC(C)C1=CC(=Nc2ccc(S(N)(=O)=O)cc2)C=C(C(C)C)C1=O | > 42 µM (inactive) |
| COc1ccccc1NC(=O)c1nn(C)cc1Br | > 42 µM (inactive) |
| O=C(OCc1nnc(-c2ccccc2)o1)c1ccc([N+](=O)[O-])o1 | 4.12 µM |
| CCCCc1ccc(NC(=S)NCc2cccs2)cc1 | 41.9 µM |
| COc1ccc(-c2cc(C(F)(F)F)n3ncc(C(=O)O)c3n2)cc1OC | > 42 µM (inactive) |
| CCc1cc2c(=O)c(-c3nc4ccccc4[nH]3)coc2c(CN2CCCCC2)c1O | > 42 µM (inactive) |
| CCOc1cc(NC(=O)c2cccs2)c(OCC)cc1NC(=O)CCC(=O)NCCN1CCOCC1 | > 42 µM (inactive) |
| Cn1c(=O)[nH]c(=O)c2c1nc(NCCN)n2CCOc1ccccc1 | > 42 µM (inactive) |
| CC(C)(C)c1ccc(-c2nc(C=O)c3ccccn23)cc1 | > 42 µM (inactive) |
| O=C(OCC#CCSc1nnc(-c2ccccc2)o1)c1cc2ccccc2o1 | > 42 µM (inactive) |
| Cc1cccc(C)c1NC(=O)C1(N(Cc2ccco2)C(=O)CC2NC(=O)NC2=O)CCCCC1 (configuration not stated) | > 42 µM (inactive) |
| CC(=O)Nc1ccc(CN2CCCC(CO)(Cc3cccc(Cl)c3)C2)cc1 (configuration not stated) | > 42 µM (inactive) |
| COc1cc(SC)ccc1C(=O)Nc1cc(C)c(OCC(=O)N2CCOCC2)c(C)c1 | > 42 µM (inactive) |
| Cc1ccc(-c2ccc(/C=N/n3cnnc3)o2)cc1 | > 42 µM (inactive) |
| COc1ccc2[nH]cc(C(=O)C(=O)N3CCCCC3)c2c1 | > 42 µM (inactive) |
| O=S(=O)(NCc1cccc(C(F)(F)F)c1)NCc1ccccc1F | > 42 µM (inactive) |
| COc1ccccc1C(=O)NCCNc1ccc([N+](=O)[O-])cc1Cl | > 110 µM (inactive) |
| COc1ccccc1-c1sc2ccccc2c1-c1ccc2c(c1)OCO2 | > 42 µM (inactive) |
| CCN(CC)c1nc(Nc2ccc(Cl)cc2)nc(OCC#N)n1 | > 42 µM (inactive) |
| O=C(O)c1c(C(=O)O)c(-c2ccc(F)cc2)n2c1CCC2 | > 42 µM (inactive) |
| O=C(CSc1nc(-c2ccccc2)cc(=O)[nH]1)Nc1ccc(Br)cc1 | > 42 µM (inactive) |
| Cc1ccc(S(=O)(=O)NC2CCCCCCC2)cc1 | 18.1 µM |

| SMILES | AC50 |
| --- | --- |
| Cc1ccccc1Nc1c([N+](=O)[O-])ccc2c1=NC1(CCCCC1)N=2 | > 42 µM (inactive) |
| O=C(CCCCCn1c(=O)[nH]c2ccsc2c1=O)NCc1ccc(F)cc1 | > 42 µM (inactive) |
| COc1ccc(C)cc1NC(=O)Cn1c(=O)oc2ccccc21 | > 42 µM (inactive) |
| O=C1CN(C(=O)COC(=O)COc2ccc3c(c2)CCC3)c2ccccc2N1 | > 42 µM (inactive) |
| Cc1cc(C)nc(-n2nc(C)cc2NC(=O)CNCc2ccccc2)n1 | > 42 µM (inactive) |
| O=C1CC(c2c[nH]c3ccccc23)C(=O)N1c1ccccc1 (configuration not stated) | > 42 µM (inactive) |
| CN(C(=O)c1ccncc1)c1nnc(-c2cnccn2)s1 | > 42 µM (inactive) |
| Cc1cc(=O)n2[nH]c(-c3ccc(F)cc3)nc2n1 | > 42 µM (inactive) |
| COc1cc(SC)ccc1C(=O)N1CCCCCC1 | > 42 µM (inactive) |
| O=C(CCN1CCc2ccccc2C1)Nc1ccc2c(c1)OCO2 | > 42 µM (inactive) |
| CN=C1SC(CC(=O)Nc2sc3c(c2C#N)CCCC3)C(=O)N1C (configuration not stated) | > 42 µM (inactive) |
| CCOC(=O)c1sc(NC(=O)CSc2n[nH]c(-c3ccc(Cl)cc3Cl)n2)c(C#N)c1C | > 42 µM (inactive) |
| CC(=O)Nc1ccc(S(=O)(=O)N(C)CC(=O)Nc2ccc(Br)cc2F)cc1 | > 42 µM (inactive) |
| O=C(COC(=O)c1ccc([N+](=O)[O-])o1)Nc1ncc(Cl)cc1Cl | 9.48 µM |
| CCc1ccc2nc(-c3cccc(C)c3)nc(SCC(=O)NCC3CCCO3)c2c1 (configuration not stated) | > 42 µM (inactive) |
| COC(=O)c1ccc(N2C(=O)CC(NCc3ccccc3)C2=O)cc1 (configuration not stated) | > 42 µM (inactive) |
| COc1cccc(/C=C/C(=O)OCC(=O)Nc2ccc(Cl)cn2)c1 | > 42 µM (inactive) |
| O=C(N/C(=C/c1ccc2c(c1)OCO2)C(=O)N1CCOCC1)c1cccs1 | > 42 µM (inactive) |
| Cc1csc(=O)n1CC(=O)OCC(=O)Nc1cc([N+](=O)[O-])ccc1Cl | > 42 µM (inactive) |
| Cc1cc(S(=O)(=O)NCC(C)C)ccc1OCC(=O)N1CCOCC1 | > 42 µM (inactive) |
| COc1ccc2c(c1)OC[C@H]1[C@H]2N2C(=O)c3cc(C)ccc3NC(=O)[C@@]2(C)[C@H]1c1ccccc1 | 1.39 µM |
| COc1cc(CN2CCNC(=O)C2CC(=O)NCCc2ncccc2C)cc(OC)c1 (configuration not stated) | > 42 µM (inactive) |
| COc1cc2c(cc1OC)C(c1ccc(SC)cc1)CC(=O)N2 (configuration not stated) | > 42 µM (inactive) |
| O=C(CCS(=O)(=O)c1ccc(Br)s1)NCc1ccccc1 | > 42 µM (inactive) |
